# Activity calls are given as the source filed them. The rule behind the calls is not given here.
# Tested on: CCRIS mutagenicity, Ames/micronucleus/aberration tests
# Assay: CCRIS mutagenicity studies
smiles,measurement,setting,value
O=Cc1c(Cl)cccc1Cl,mutagenic call,"Test System: AMES SALMONELLA TYPHIMURIUM, Strain/Indicator: TA97, Metabolic Activation: HAMSTER, LIVER, S-9, AROCLOR 1254 (10%), Method: PREINCUBATION",inactive; negative
same,mutagenic call,"Test System: AMES SALMONELLA TYPHIMURIUM, Strain/Indicator: TA97, Metabolic Activation: HAMSTER, LIVER, S-9, AROCLOR 1254 (30%), Method: PREINCUBATION",inactive; negative
same,mutagenic call,"Test System: AMES SALMONELLA TYPHIMURIUM, Strain/Indicator: TA97, Metabolic Activation: NONE, Method: PREINCUBATION",inactive; negative
same,mutagenic call,"Test System: AMES SALMONELLA TYPHIMURIUM, Strain/Indicator: TA97, Metabolic Activation: RAT, LIVER, S-9, AROCLOR 1254 (10%), Method: PREINCUBATION",inactive; negative
same,mutagenic call,"Test System: AMES SALMONELLA TYPHIMURIUM, Strain/Indicator: TA97, Metabolic Activation: RAT, LIVER, S-9, AROCLOR 1254 (30%), Method: PREINCUBATION",inactive; negative
same,mutagenic call,"Test System: AMES SALMONELLA TYPHIMURIUM, Strain/Indicator: TA98, Metabolic Activation: HAMSTER, LIVER, S-9, AROCLOR 1254 (10%), Method: PREINCUBATION",inactive; negative
same,mutagenic call,"Test System: AMES SALMONELLA TYPHIMURIUM, Strain/Indicator: TA98, Metabolic Activation: HAMSTER, LIVER, S-9, AROCLOR 1254 (30%), Method: PREINCUBATION",inactive; negative
same,mutagenic call,"Test System: AMES SALMONELLA TYPHIMURIUM, Strain/Indicator: TA98, Metabolic Activation: NONE, Method: PREINCUBATION",inactive; negative
same,mutagenic call,"Test System: AMES SALMONELLA TYPHIMURIUM, Strain/Indicator: TA98, Metabolic Activation: RAT LIVER S-9 PCB, Method: PREINCUBATION",inactive; negative
same,mutagenic call,"Test System: AMES SALMONELLA TYPHIMURIUM, Strain/Indicator: TA98, Metabolic Activation: RAT, LIVER, S-9, AROCLOR 1254 (10%), Method: PREINCUBATION",inactive; negative
same,mutagenic call,"Test System: AMES SALMONELLA TYPHIMURIUM, Strain/Indicator: TA98, Metabolic Activation: RAT, LIVER, S-9, AROCLOR 1254 (30%), Method: PREINCUBATION",inactive; negative
same,mutagenic call,"Test System: AMES SALMONELLA TYPHIMURIUM, Strain/Indicator: TA100, Metabolic Activation: HAMSTER, LIVER, S-9, AROCLOR 1254 (10%), Method: PREINCUBATION",inactive; negative
same,mutagenic call,"Test System: AMES SALMONELLA TYPHIMURIUM, Strain/Indicator: TA100, Metabolic Activation: HAMSTER, LIVER, S-9, AROCLOR 1254 (30%), Method: PREINCUBATION",inactive; negative
same,mutagenic call,"Test System: AMES SALMONELLA TYPHIMURIUM, Strain/Indicator: TA100, Metabolic Activation: NONE, Method: PREINCUBATION",inactive; negative
same,mutagenic call,"Test System: AMES SALMONELLA TYPHIMURIUM, Strain/Indicator: TA100, Metabolic Activation: RAT LIVER S-9, PCB, Method: PREINCUBATION",inactive; negative
same,mutagenic call,"Test System: AMES SALMONELLA TYPHIMURIUM, Strain/Indicator: TA100, Metabolic Activation: RAT, LIVER, S-9, AROCLOR 1254 (10%), Method: PREINCUBATION",inactive; negative
same,mutagenic call,"Test System: AMES SALMONELLA TYPHIMURIUM, Strain/Indicator: TA100, Metabolic Activation: RAT, LIVER, S-9, AROCLOR 1254 (30%), Method: PREINCUBATION",inactive; negative
same,mutagenic call,"Test System: AMES SALMONELLA TYPHIMURIUM, Strain/Indicator: TA104, Metabolic Activation: HAMSTER, LIVER, S-9, AROCLOR 1254 (10%), Method: PREINCUBATION",inactive; negative
same,mutagenic call,"Test System: AMES SALMONELLA TYPHIMURIUM, Strain/Indicator: TA104, Metabolic Activation: HAMSTER, LIVER, S-9, AROCLOR 1254 (30%), Method: PREINCUBATION",inactive; negative
same,mutagenic call,"Test System: AMES SALMONELLA TYPHIMURIUM, Strain/Indicator: TA104, Metabolic Activation: NONE, Method: PREINCUBATION",inactive; negative
same,mutagenic call,"Test System: AMES SALMONELLA TYPHIMURIUM, Strain/Indicator: TA104, Metabolic Activation: RAT LIVER S-9, PCB, Method: PREINCUBATION",inactive; negative
same,mutagenic call,"Test System: AMES SALMONELLA TYPHIMURIUM, Strain/Indicator: TA104, Metabolic Activation: RAT, LIVER, S-9, AROCLOR 1254 (10%), Method: PREINCUBATION",inactive; negative
same,mutagenic call,"Test System: AMES SALMONELLA TYPHIMURIUM, Strain/Indicator: TA104, Metabolic Activation: RAT, LIVER, S-9, AROCLOR 1254 (30%), Method: PREINCUBATION",inactive; negative
same,mutagenic call,"Test System: AMES SALMONELLA TYPHIMURIUM, Strain/Indicator: TA1535, Metabolic Activation: HAMSTER, LIVER, S-9, AROCLOR 1254 (10%), Method: PREINCUBATION",inactive; negative
same,mutagenic call,"Test System: AMES SALMONELLA TYPHIMURIUM, Strain/Indicator: TA1535, Metabolic Activation: HAMSTER, LIVER, S-9, AROCLOR 1254 (30%), Method: PREINCUBATION",inactive; negative
same,mutagenic call,"Test System: AMES SALMONELLA TYPHIMURIUM, Strain/Indicator: TA1535, Metabolic Activation: NONE, Method: PREINCUBATION",inactive; negative
same,mutagenic call,"Test System: AMES SALMONELLA TYPHIMURIUM, Strain/Indicator: TA1535, Metabolic Activation: RAT, LIVER, S-9, AROCLOR 1254 (10%), Method: PREINCUBATION",inactive; negative
same,mutagenic call,"Test System: AMES SALMONELLA TYPHIMURIUM, Strain/Indicator: TA1535, Metabolic Activation: RAT, LIVER, S-9, AROCLOR 1254 (30%), Method: PREINCUBATION",inactive; negative
same,mutagenic call,"Test System: E.COLI, Strain/Indicator: WP2 UVRA, Metabolic Activation: NONE, Method: PREINCUBATION",inactive; negative
same,mutagenic call,"Test System: E.COLI, Strain/Indicator: WP2 UVRA, Metabolic Activation: RAT LIVER S-9, PCB, Method: PREINCUBATION",inactive; negative
Cc1ccc2c3c(cc4ccccc4c13)-c1ccccc1-2,mutagenic call,"Test System: AMES SALMONELLA TYPHIMURIUM, Strain/Indicator: TA100, Metabolic Activation: RAT, LIVER, S-9, AROCLOR 1254",active; positive
ClCc1c2ccccc2c(Cl)c2ccccc12,mutagenic call,"Test System: AMES SALMONELLA TYPHIMURIUM, Strain/Indicator: TA100, Metabolic Activation: NONE, Method: STANDARD PLATE",active; positive
O[C@H]1[C@@H]2O[C@@H]2c2c(ccc3ccc4ccccc4c23)[C@@H]1O,mutagenic call,"Test System: E. COLI, Strain/Indicator: CL101P, Metabolic Activation: NONE, Method: PREINCUBATION",active; positive
same,mutagenic call,"Test System: E. COLI, Strain/Indicator: CL102P, Metabolic Activation: NONE, Method: PREINCUBATION",active; positive
same,mutagenic call,"Test System: E. COLI, Strain/Indicator: CL103P, Metabolic Activation: NONE, Method: PREINCUBATION",active; positive
same,mutagenic call,"Test System: E. COLI, Strain/Indicator: CL104P, Metabolic Activation: NONE, Method: PREINCUBATION",active; positive
same,mutagenic call,"Test System: E. COLI, Strain/Indicator: CL105P, Metabolic Activation: NONE, Method: PREINCUBATION",active; positive
same,mutagenic call,"Test System: E. COLI, Strain/Indicator: CL106P, Metabolic Activation: NONE, Method: PREINCUBATION",active; positive

# From PubChem BioAssay AID1259407 (Chemical Carcinogenesis Research Information System (CCRIS), 2018)
